Assay results from patent US8614201B2 (Janssen Pharmaceutica NV, priority 2009, dated 2013).

Biological target: Human TRPA1 (Homo sapiens, UniProt O75762)
Experiment: Alternative TRPA1 Ca2+ fluorometry assay (hTRPA1/TREx-HEK293 cells, Fluo-4, FDSS 6000)
Assay type: cell-based
Set-up: expressed in transfected cells
Conditions: Fluo-4-AM, agonist 6,11-dihydro-5H-dibenzo[b,e]azepine-10-carboxylic acid methyl ester 25 nM, procedure used for Examples 184, 190 to 192, 194 to 316
Description: In alternative embodiments, the assay was performed using the following procedure for Examples 184, 190 to 192, and 194 to 316:
The human TRPA1 gene was cloned into the pT-Rex-Dest30 inducible vector and stably transfected in T-Rex™-293 cells (Invitrogen, Merelbeke, Belgium). This tetracycline inducible hTRPA1 expression system was used in order to prevent CA^2+ overload in the cultured cells due to sustained TRPA1 expression. hTRPA1/TREx-HEK293 cells (referred to as jTRPA1 cells in the following text) were maintained under standard sterile cell culture conditions. The culture medium for the jTRPA1-HEK cells was DMEN (Gibco BRL, Invitrogen, Merelbeke, Belgium) supplemented with 5 g/l gengticin (Gibco), 5 mL/l blasticidin (Invitorgen), 14.6 g/l L-Glutamine (200 mMl; Gibco), 5 g/l penicillin/streptomycin (5.10-6 IU/I, Gibco), 5.5 g/l pyruvic acid (Gibco) and 10% foetal calf serum (Hyclone, Logan Utah, USA).
For Ca^2+ fluorometry experiments, hTRPA1-HEK cells were resuspended in HBSS seeding medium: HBSS (with CaCl2 and MgCl2: Gibco) supplemented with 14.6 g/l L-Glutamine (200 mM; Gibco), 5 g/l penicillin/streptomycin (5.10-6 IU/l. Gibco), 5.5 g/l pyruvic acid (Gibco) and 10% foetal calf serum (heat inactivated for 30 minutes at 56° C.; Hyclone, Logan Utah, USA). The cells were seeded in poly-D-lysine-coated 384-well round bottom polypropylene plates (Costar Corning, Data Packaging, Cambridge Mass., USA) at 12000 cells/well. Fifty ng/ml tetracycline was added to induce the hTRPA1 expression 24 h before the experiment.
The cells were loaded with 5 mg/l Fluo-4-AM (Molecular Probes, Invitorgen, Merelbeke, Belgium) dissolved in HBSS seeding medium supplemented with 0.7 g/l Probenecid (Sigma) and incubated for 1 h at 37° C. and subsequently at 20° C. for 1 to 2 h. The fluorescence was measured in the FDSS 6000 imaging based plate reader (Hamamutsu Photonics K.K., Hamamutsu City, Japan). The excitation wavelength was 488 nm and the emission wavelength 540 nm. After a control period of 12 seconds the inventive compounds were added and the Ca^2+ signal was measured within 14 minutes after application. Finally, a TRPA1 agonist, 6,11-dihydro-5H-dibenzo[b,e]azepine-10-carboxylic acid methyl ester, was added at a final concentration of 25 nM. The emission ratio was calculated by dividing the emission signal (Em540) by the first EM540 signal of the control period to compensate for the background fluorescence. […] For intracellular Ca^2+ measurements, a compound stock solution (10 to 100 mM) was further diluted in DMSO in order to obtain a final 1% DMSO concentration in the extracellular solution.

Sequence of Human TRPA1 (O75762 whole entry): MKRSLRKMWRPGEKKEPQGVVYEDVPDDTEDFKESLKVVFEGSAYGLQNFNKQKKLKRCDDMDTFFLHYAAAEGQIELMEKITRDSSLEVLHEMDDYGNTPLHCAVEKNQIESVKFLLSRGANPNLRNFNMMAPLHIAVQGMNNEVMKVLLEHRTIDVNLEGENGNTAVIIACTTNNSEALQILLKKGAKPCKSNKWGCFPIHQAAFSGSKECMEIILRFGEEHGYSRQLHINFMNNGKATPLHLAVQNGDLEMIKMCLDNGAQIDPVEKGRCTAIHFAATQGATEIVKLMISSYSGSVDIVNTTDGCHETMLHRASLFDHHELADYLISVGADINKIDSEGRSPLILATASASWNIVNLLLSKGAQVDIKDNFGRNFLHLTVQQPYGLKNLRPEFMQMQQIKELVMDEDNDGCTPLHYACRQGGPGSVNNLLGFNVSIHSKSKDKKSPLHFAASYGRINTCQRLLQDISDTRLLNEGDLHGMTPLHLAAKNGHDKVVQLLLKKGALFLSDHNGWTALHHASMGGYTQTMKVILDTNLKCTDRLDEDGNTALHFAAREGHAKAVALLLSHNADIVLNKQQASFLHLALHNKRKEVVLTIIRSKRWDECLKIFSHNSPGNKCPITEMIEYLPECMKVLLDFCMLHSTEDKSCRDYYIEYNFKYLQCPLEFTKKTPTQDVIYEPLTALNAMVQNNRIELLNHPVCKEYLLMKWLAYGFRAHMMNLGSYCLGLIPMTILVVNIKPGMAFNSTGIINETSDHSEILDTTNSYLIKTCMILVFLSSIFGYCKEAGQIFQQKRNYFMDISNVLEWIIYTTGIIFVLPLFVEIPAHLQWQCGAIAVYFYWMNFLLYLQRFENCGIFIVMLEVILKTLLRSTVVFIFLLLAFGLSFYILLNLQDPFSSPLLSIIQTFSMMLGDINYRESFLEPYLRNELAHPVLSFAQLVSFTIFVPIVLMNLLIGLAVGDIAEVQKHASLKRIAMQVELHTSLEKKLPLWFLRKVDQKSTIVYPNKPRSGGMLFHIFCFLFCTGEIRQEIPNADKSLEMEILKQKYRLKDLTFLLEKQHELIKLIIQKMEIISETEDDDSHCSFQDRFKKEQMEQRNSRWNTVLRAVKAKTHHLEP

Row | Compound | IC50 [nM]
1 | O=C(NCc1cc(-c2ccc3c(c2)OCO3)nc(N2CCc3ccccc3C2)n1)[C@@H]1CCCN1S(=O)(=O)c1ccc(F)cc1 [Example 208, 1-(4-Fluoro-benzenesulfonyl)-pyrrolidine-2S-carboxylic acid [6-benzo[1,3]dioxol-5-yl-2-(3,4-dihydro-1H-isoquinolin-2-yl)-pyrimidin-4-ylmethyl]-amide] | 2290
2 | O=C(NCc1cc(-c2ccc(Br)cc2)nc(N[C@@H](CO)Cc2ccccc2)n1)[C@@H]1CCCN1S(=O)(=O)c1ccc(F)cc1 [Example 210, 1-(4-Fluoro-benzenesulfonyl)-pyrrolidine-2S-carboxylic acid [6-(4-bromo-phenyl)-2-(1S-hydroxymethyl-2-phenyl-ethylamino)-pyrimidin-4-ylmethyl]-amide] | 4570
3 | O=C(NCc1cc(-c2ccc(Br)cc2)nc(N2CCC(Cc3ccccc3)CC2)n1)[C@@H]1CCCN1S(=O)(=O)c1ccc(F)cc1 [Example 213, 1-(4-Fluoro-benzenesulfonyl)-pyrrolidine-2S-carboxylic acid [2-(4-benzyl-piperidin-1-yl)-6-(4-bromo-phenyl)-pyrimidin-4-ylmethyl]-amide] | 2400
4 | CN1CCCN(c2nc(CNC(=O)[C@@H]3CCCN3S(=O)(=O)c3ccc(F)cc3)cc(-c3ccc(Br)cc3)n2)CC1 [Example 218, 1-(4-Fluoro-benzenesulfonyl)-pyrrolidine-2S-carboxylic acid [6-(4-bromo-phenyl)-2-(4-methyl-[1,4]diazepan-1-yl)-pyrimidin-4-ylmethyl]-amide] | > 10000
5 | O=C(NCc1cc(-c2ccc(Br)cc2)nc(NCc2cccnc2)n1)[C@@H]1CCCN1S(=O)(=O)c1ccc(F)cc1 [Example 219, 1-(4-Fluoro-benzenesulfonyl)-pyrrolidine-2S-carboxylic acid {6-(4-bromo-phenyl)-2-[(pyridin-3-ylmethyl)-amino]-pyrimidin-4-ylmethyl}-amide] | ~2690
6 | CN1CCN(c2nc(CNC(=O)[C@@H]3CCCN3S(=O)(=O)c3ccc(F)cc3)cc(-c3ccc(Br)cc3)n2)CC1 [Example 220, 1-(4-Fluoro-benzenesulfonyl)-pyrrolidine-2S-carboxylic acid [6-(4-bromo-phenyl)-2-(4-methyl-piperazin-1-yl)-pyrimidin-4-ylmethyl]-amide] | ~4470
7 | O=C(NCc1cc(-c2ccc(Br)cc2)nc(NCCc2ccc(Cl)cc2Cl)n1)[C@@H]1CCCN1S(=O)(=O)c1ccc(F)cc1 [Example 221, 1-(4-Fluoro-benzenesulfonyl)-pyrrolidine-2S-carboxylic acid {6-(4-bromo-phenyl)-2-[2-(2,4-dichloro-phenyl)-ethylamino]-pyrimidin-4-ylmethyl}-amide] | 2040
8 | O=C(NCc1cc(-c2ccc(Br)cc2)nc(N2CCc3ccccc3C2)n1)[C@@H]1CCCN1S(=O)(=O)c1ccc(F)cc1 [Example 222, 1-(4-Fluoro-benzenesulfonyl)-pyrrolidine-2S-carboxylic acid [6-(4-bromo-phenyl)-2-(3,4-dihydro-1H-isoquinolin-2-yl)-pyrimidin-4-ylmethyl]-amide] | 9120
9 | O=C(NCc1cc(-c2ccc3c(c2)OCO3)nc(Nc2cccc(Cl)c2)n1)[C@@H]1CCCN1S(=O)(=O)c1ccc(F)cc1 [Example 223, 1-(4-Fluoro-benzenesulfonyl)-pyrrolidine-2S-carboxylic acid [6-benzo[1,3]dioxol-5-yl-2-(3-chloro-phenylamino)-pyrimidin-4-ylmethyl]-amide] | > 10000
10 | O=C(NCc1cc(-c2ccc3c(c2)OCO3)nc(Nc2ccc(Cl)cc2)n1)[C@@H]1CCCN1S(=O)(=O)c1ccc(F)cc1 [Example 224, 1-(4-Fluoro-benzenesulfonyl)-pyrrolidine-2S-carboxylic acid [6-benzo[1,3]dioxol-5-yl-2-(4-chloro-phenylamino)-pyrimidin-4-ylmethyl]-amide] | > 10000
11 | O=C(NCc1cc(-c2ccc3c(c2)OCO3)nc(Nc2ccc(F)cc2)n1)[C@@H]1CCCN1S(=O)(=O)c1ccc(F)cc1 [Example 225, 1-(4-Fluoro-benzenesulfonyl)-pyrrolidine-2S-carboxylic acid [6-benzo[1,3]dioxol-5-yl-2-(4-fluoro-phenylamino)-pyrimidin-4-ylmethyl]-amide] | 2510

Now those with a lower IC50, led by results:

Row | IC50 [nM] | Compound
12 | 1000 | C#CCNc1nc(CNC(=O)[C@@H]2CCCN2S(=O)(=O)c2ccc(F)cc2)cc(-c2ccc(Br)cc2)n1 [Example 209, 1-(4-Fluoro-benzenesulfonyl)-pyrrolidine-2S-carboxylic acid [6-(4-bromo-phenyl)-2-prop-2-ynylamino-pyrimidin-4-ylmethyl]-amide]
13 | ~1620 | O=C(NCc1cc(-c2ccc(Br)cc2)nc(NC2CCCC2)n1)[C@@H]1CCCN1S(=O)(=O)c1ccc(F)cc1 [Example 211, 1-(4-Fluoro-benzenesulfonyl)-pyrrolidine-2S-carboxylic acid [6-(4-bromo-phenyl)-2-cyclopentylamino-pyrimidin-4-ylmethyl]-amide]
14 | 676 | CC(Nc1nc(CNC(=O)[C@@H]2CCCN2S(=O)(=O)c2ccc(F)cc2)cc(-c2ccc(Br)cc2)n1)c1ccccc1 (stereo partly drawn) [Example 212, 1-(4-Fluoro-benzenesulfonyl)-pyrrolidine-2S-carboxylic acid [6-(4-bromo-phenyl)-2-(1(R,S)-phenyl-ethylamino)-pyrimidin-4-ylmethyl]-amide]
15 | ~977 | CCOC(=O)C1CCN(c2nc(CNC(=O)[C@@H]3CCCN3S(=O)(=O)c3ccc(F)cc3)cc(-c3ccc(Br)cc3)n2)CC1 [Example 214, 1-[4-(4-Bromo-phenyl)-6-({[1-(4-fluoro-benzenesulfonyl)-pyrrolidine-2S-carbonyl]-amino}-methyl)-pyrimidin-2-yl]-piperidine-4-carboxylic acid ethyl ester]
16 | 1020 | CCCCNc1nc(CNC(=O)[C@@H]2CCCN2S(=O)(=O)c2ccc(F)cc2)cc(-c2ccc(Br)cc2)n1 [Example 215, 1-(4-Fluoro-benzenesulfonyl)-pyrrolidine-2S-carboxylic acid [6-(4-bromo-phenyl)-2-butylamino-pyrimidin-4-ylmethyl]-amide]
17 | 1200 | O=C(NCc1cc(-c2ccc(Br)cc2)nc(N2CCN(c3ccccn3)CC2)n1)[C@@H]1CCCN1S(=O)(=O)c1ccc(F)cc1 [Example 216, 1-(4-Fluoro-benzenesulfonyl)-pyrrolidine-2S-carboxylic acid [6-(4-bromo-phenyl)-2-(4-pyridin-2-yl-piperazin-1-yl)-pyrimidin-4-ylmethyl]-amide]
18 | 871 | O=C(NCc1cc(-c2ccc(Br)cc2)nc(N2CCOCC2)n1)[C@@H]1CCCN1S(=O)(=O)c1ccc(F)cc1 [Example 217, 1-(4-Fluoro-benzenesulfonyl)-pyrrolidine-2S-carboxylic acid [6-(4-bromo-phenyl)-2-morpholin-4-yl-pyrimidin-4-ylmethyl]-amide]
19 | 115 | O=C(NCc1cc(-c2ccc(OC(F)(F)F)cc2)nc(N2CCN(c3ccccc3F)CC2)n1)[C@@H]1CCCN1S(=O)(=O)c1ccc(F)cc1 [Example 226, 1-(4-Fluoro-benzenesulfonyl)-pyrrolidine-2S-carboxylic acid [2-[4-(2-fluoro-phenyl)-piperazin-1-yl]-6-(4-trifluoromethoxy-phenyl)-pyrimidin-4-ylmethyl]-amide]
